Laboratory results: patent US9814787B2, “Luciferin amides” (University of Massachusetts, priority 2013, dated 2017)
“Also recorded” adds a separate entry of the source.

Legend:
[1] = target: T1, FAAH (Homo sapiens, UniProt O00519); assay: In vitro FAAH assay: luciferin amide treated with recombinant FAAH, then R218K luciferase, bioluminescence; assay type: biochemical; conditions: 50 μM luciferin amide, 10 minutes at room temperature, R218K luciferase 3 μg/mL
T1 construct: purchased Cayman Chemical
T1 sequence (O00519 1-579): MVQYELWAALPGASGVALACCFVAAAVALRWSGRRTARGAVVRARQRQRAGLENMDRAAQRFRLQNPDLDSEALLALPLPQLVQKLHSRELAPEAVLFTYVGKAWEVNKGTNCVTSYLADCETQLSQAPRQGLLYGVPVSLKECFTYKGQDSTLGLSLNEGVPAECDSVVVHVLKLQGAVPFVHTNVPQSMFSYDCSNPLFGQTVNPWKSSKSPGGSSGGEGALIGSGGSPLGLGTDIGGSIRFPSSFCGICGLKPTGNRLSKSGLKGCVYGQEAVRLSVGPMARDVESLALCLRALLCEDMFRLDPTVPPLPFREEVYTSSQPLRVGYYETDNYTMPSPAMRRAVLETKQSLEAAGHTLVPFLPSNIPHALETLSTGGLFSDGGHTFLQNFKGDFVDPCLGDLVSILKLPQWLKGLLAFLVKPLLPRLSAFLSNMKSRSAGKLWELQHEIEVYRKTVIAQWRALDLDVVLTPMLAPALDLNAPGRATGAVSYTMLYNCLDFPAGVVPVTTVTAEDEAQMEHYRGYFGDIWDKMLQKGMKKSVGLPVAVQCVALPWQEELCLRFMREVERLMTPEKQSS
Procedure: Recombinant FAAH, FAAH assay buffer, and FAAH inhibitors URB-597, PF-750, and PF-3845 were purchased from Cayman Chemical.
Bioluminescence assays were performed in either a Turner Veritas luminometer or a Xenogen IVIS-100 imaging system. For Veritas experiments, white 96-well plates were used (Costar 3912). For IVIS experiments, black 96-well plates were used (Costar 3915).
Luciferin amides (50 μM) were treated with FAAH and FAAH buffer (Cayman Chemical) in the presence or absence of 50 μM FAAH inhibitor URB-597 or 50 μM luciferase inhibitor 2-(4′-methoxyphenyl)benzothiazole. After 10 minutes at room temperature, R218K mutant firefly luciferase was added at a concentration of 3 μg/mL and bioluminescence was detected on a Turner Veritas luminometer.
Four luciferin amides (50 μM), i.e., Compounds 1, 9, 10, and 25, were treated with a buffer alone, a buffer containing FAAH, a buffer containing FAAH+50 μM URB-597 (i.e., a FAAH inhibitor), or a buffer containing FAAH+50 μM luciferase inhibitor 2-(4′-methoxyphenyl)benzothiazole. After 10 minutes at room temperature, R218K luciferase was added at a concentration of 3 μg/mL and bioluminescence was detected on a Turner Veritas.
Three luciferin amides (50 μM), i.e., Compounds 2, 9, and 25, were treated with a buffer alone, a buffer containing FAAH, a buffer containing FAAH 1:10 (i.e., a ten-fold dilution of FAAH), a buffer containing pig liver esterase (PLE), or a buffer containing PLE 1:10 (i.e., a ten-fold dilution of PLE). After one hour at room temperature, R218K luciferase was added at a concentration of 3 μg/mL and bioluminescence was detected on a Turner Veritas.

[2] = test system: live CHO cells expressing R218K luciferase; assay: Intact cell FAAH assay, light emission from live CHO cells expressing R218K luciferase; assay type: cell-based, Chinese hamster
Procedure: (§1) Chinese hamster ovary-K1 (CHO-K1) cells were grown in a CO2 incubator at 37° C. with 5% CO2 and were cultured in F-12K Nutrient Mixture (GIBCO) supplemented with 10% fetal bovine serum and 100 U/mL penicillin/streptomycin.
(§2) Wild-type and R218K mutant luciferases were cloned into the BamHI-NotI site of pCDNA 3.1 and transiently transfected into CHO-K1 cells with Lipofectamine 2000 in 96-well tissue culture-treated plates for intact cell assays, or 6-well plates for lysed cell assays. For intact cells, 0.075 μg plasmid/well was transfected; for lysed cells, 2.25 μg plasmid/well was transfected.
[…] The cells were incubated for one hour in the CO2 incubator at 37° C. Cells were then washed with Hank's balanced salt solution (HBSS) and overlaid with 60 μL a luciferin amide substrate in HBSS. Imaging assays were performed 3 minutes after substrate addition, with final substrate concentrations ranging from 0.122 to 250 μM.
Seven luciferin amides, i.e., Compounds 1-4, 9, 10, and 25, were tested in live CHO cells expressing R218K luciferase at various concentrations (i.e., 0.12 μM, 0.25 μM, 0.5 μM, 1 μM, 2 μM, 4 μM, 8 μM, 16 μM, 31 μM, 62 μM, 125 μM, and 250 μM).
(§3) Compound 25 and Compound 10, as well as their corresponding luciferins (i.e., D-Luciferin and CycLuc2, respectively), were tested in live CHO cells expressing wild-type (WT) luciferase or R218K (RK) luciferase at various concentrations (i.e., 0.125 μM, 0.25 μM, 0.5 μM, 1 μM, 2 μM, 4 μM, 8 μM, 16 μM, 31 μM, 62 μM, 125 μM, and 250 μM).

[3] = test system: live CHO cells expressing wild-type (WT) luciferase; assay: Intact cell FAAH assay, light emission from live CHO cells expressing wild-type luciferase; assay type: cell-based, Chinese hamster; conditions: all concentration levels
Procedure: as §1, §2
Medium was removed from transfected CHO cells and replaced with 60 μL Optimem with or without a FAAH inhibitor (10 μM). The cells were incubated for one hour in the CO2 incubator at 37° C. Cells were then washed with Hank's balanced salt solution (HBSS) and overlaid with 60 μL a luciferin amide substrate in HBSS. Imaging assays were performed 3 minutes after substrate addition, with final substrate concentrations ranging from 0.122 to 250 μM.
as §3

[4] = test system: FVB mice expressing luciferase in brain tissue; assay: In vivo bioluminescence imaging in brains of FVB mice injected with AAV9-luc+ in the striatum; conditions: doses 200-fold and 1000-fold lower than standard D-luciferin dose
Procedure: FVB mice were injected with AAV9-luc+ in the brain striatum. Bioluminescence assays were performed approximately nine months after AAV injection. Each luciferin amide was diluted into PBS to the indicated concentration from a 50 mM DMSO stock solution and filtered (0.22 μm) prior to intraperitoneally injection (0.1 mL per mouse). Mice were anesthetized with isoflurane (2% in 1 L/min oxygen) and images acquired on a Xenogen IVIS 100 imaging system and analyzed with Living Image software.
Certain luciferin amides described herein were tested to determine whether they would image well in live mice. For these studies, FVB mice were injected with adeno-associated virus 9 (AAV9)-luciferase constructs into the brain striatum.
Bioluminescence imaging (BLI) in the brain is more challenging than imaging in the rest of the organism, in part because a luciferase substrate (i.e., a luciferin) must cross the blood-brain barrier. Therefore, the ability of a synthetic luciferin (i.e., Compound 9's corresponding luciferin (CycLuc1)) to allow bioluminescence imaging in these mice, as compared to the native firefly luciferase substrate (i.e., D-luciferin) was first tested. Specifically, each substrate was injected intraperitoneally (IP) in PBS at a volume of 0.1 mL, D-luciferin being at a concentration of 100 mM and CycLuc1 being at a concentration of 5 mM. […] CycLuc1 was then injected at a 320-fold lower dose (0.06 mL of 0.5 mM) than D-luciferin.
Specifically, Compound 9 (i.e., CycLuc1 amide) was injected at 0.5 mM in 0.5% DMSO/PBS (0.06 mL).
In this figure, mice in the top row were treated with luciferin amides in the amounts indicated in the figure, and the mice in the bottom row were the same mice that were imaged one day later using a standard dose of D-luciferin.

## CN1CCc2cc3nc(C4=N[C@@H](C(N)=O)CS4)sc3cc21 [Compound 10, (S)-4,5-dihydro-2-(6,7-dihydro-5-methyl-5H-thiazolo[4,5-f]indol-2-yl)thiazole-4-carboxamide]
[1]
  increase in bioluminescence signal on addition of FAAH versus buffer: 139 fold
[2]; 50 μM FAAH inhibitor
  effect of FAAH inhibitors URB-597, PF-750 and PF-3845 on light output: complete inhibition
[2]; all concentrations tested, 0.12 to 250 μM
  light emission relative to the corresponding luciferin (CycLuc2): greater light emission than its corresponding luciferin; also recorded: greater light output than cells treated with Compound 10's corresponding luciferin
[2]; concentrations above 30 μM
  light output relative to other substrate-luciferase combinations: only exceeded by cells expressing the wild-type luciferase and treated with D-luciferin
[2]; substrate concentrations below 30 μM
  light emission relative to other substrate-luciferase combinations: higher light emission than all other substrate-luciferase combinations
[3]
  light output relative to the corresponding luciferin (CycLuc2): greater light output than cells treated with Compound 10's corresponding luciferin
[4]
  bioluminescence signal higher than standard D-luciferin imaging conditions: 10 fold
